This is an account of results in ChEMBL document CHEMBL6109180, “De Novo-Designed APC/C Inhibitors Provide a Rationale for Targeting RING-Type E3 Ubiquitin Ligases” (J Med Chem, 2025).

Activity calls are given as the source filed them. The calls are words filed in the database; no cut-off is given here. Bridge positions count the residues as written; N and C are the ends. Square brackets hold non-standard residues; d marks the D form. Peptide text beside a SMILES is read from it. R8 = C=CCCCCCC[C@@](C)(N)C(=O)O; S5 = C=CCCC[C@](C)(N)C(=O)O

For experiment [1], the target named is Anaphase-promoting complex subunit 11 (Homo sapiens) (UniProt Q9NYG5). In words: Binding affinity to APC11 (unknown origin) assessed as binding free energy.
Sequence of Anaphase-promoting complex subunit 11 (Homo sapiens) (Q9NYG5 whole entry, one chain of several): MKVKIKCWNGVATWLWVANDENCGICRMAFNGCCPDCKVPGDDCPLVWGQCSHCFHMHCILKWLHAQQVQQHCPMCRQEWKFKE
The test system of experiment [2] is HeLa. Nature of the experiment: Inhibition of recombinant APC/C/cdc20 (unknown origin) in metaphase-synchronized human HeLa cells co-expressing GST-tagged UBA1/UBE2D1/methylated ubiquitin using RD680-labeled securin as substrate at 100 uM measured after 45 mins in presence of ATP by immuno-precipitation method. In kind it is cell-based.
For experiment [3], the system named is HeLa. In words: Inhibition of recombinant APC/C/cdc20 (unknown origin) in metaphase-synchronized human HeLa cells co-expressing GST-tagged UBA1/UBE2C/methylated ubiquitin using RD680-labeled securin as substrate at 100 uM measured after 45 mins in presence of ATP by immuno-precipitation method. In kind it is cell-based.

For the compound `CC(=O)N[C@H]1CSSC[C@@H](C(=O)N[C@@H](CCC(=O)O)C(=O)N[C@@H](Cc2c[nH]c3ccccc23)C(=O)N[C@@H](CCCNC(=N)N)C(=O)N[C@@H](Cc2ccc(O)cc2)C(N)=O)NC(=O)[C@H](Cc2cnc[nH]2)NC(=O)[C@H](Cc2c[nH]c3ccccc23)NC(=O)[C@H](CCC(N)=O)NC(=O)[C@H](CO)NC(=O)[C@@H]2CCCN2C(=O)CNC(=O)[C@H](C)NC(=O)[C@H](CCC(=O)O)NC1=O` (Ac-CEAGPSQWHCEWRY-NH2; disulfide 1-10), the deltaG in experiment [1] was -19.6 kcal/mol. In the experiment with HeLa [2], the inhibition result was “inactive”. In the case of `C[C@@H](O)[C@H](NC(=O)[C@H](CC(=O)O)NC(=O)CN)C(=O)N[C@H]1CSSC[C@@H](C(=O)N[C@@H](CCC(N)=O)C(=O)N[C@@H](CCCNC(=N)N)C(=O)N[C@@H](Cc2cnc[nH]2)C(=O)O)NC(=O)[C@H](CC(N)=O)NC(=O)[C@H](Cc2c[nH]c3ccccc23)NC(=O)[C@H](CCCNC(=N)N)NC(=O)[C@H](Cc2c[nH]c3ccccc23)NC(=O)[C@H]([C@@H](C)O)NC(=O)[C@H](CCC(=O)O)NC(=O)[C@@H]2CCCN2C(=O)[C@H](CC(=O)O)NC(=O)[C@H](CC(=O)O)NC1=O` (H-GDTCDDPETWRWNCQRH-OH; disulfide 4-14), the deltaG in experiment [1] is -29.4 kcal/mol. For the same compound, the inhibition entry with HeLa [3] and in the experiment on HeLa [2] was “Active” in each case. As to `CC(=O)N[C@@H](CCCNC(=N)N)C(=O)N[C@@H](CCCNC(=N)N)C(=O)N[C@@H](CCCCN)C(=O)N[C@]1(C)CCCCCC/C=C\CCC[C@@](C)(C(=O)N[C@H](C(=O)N[C@@H](CCCNC(=N)N)C(=O)N[C@@H](Cc2ccc(O)cc2)C(N)=O)C(C)C)NC(=O)[C@H](CCCNC(=N)N)NC(=O)[C@H](C)NC(=O)[C@H](CCCNC(=N)N)NC(=O)[C@H](CCC(=O)O)NC(=O)[C@H](CCC(N)=O)NC(=O)[C@H](C)NC1=O` (Ac-RRK[R8]AQERAR[S5]VRY-NH2; staple (Z) 4-11), the inhibition result in the experiment with HeLa [3] is “inactive”. In the case of `CC(=O)N[C@@H](CCC(=O)O)C(=O)N[C@@H](Cc1c[nH]c2ccccc12)C(=O)N[C@@H](Cc1c[nH]c2ccccc12)C(=O)N[C@]1(C)CCCCCC/C=C\CCC[C@@](C)(C(=O)N[C@@H](CCCNC(=N)N)C(=O)N[C@@H](CCCNC(=N)N)C(=O)N[C@@H](C)C(N)=O)NC(=O)[C@H](CCCNC(=N)N)NC(=O)[C@H](CCC(N)=O)NC(=O)[C@H](CC(C)C)NC(=O)[C@H](CCC(=O)O)NC(=O)[C@H](CC(C)C)NC(=O)[C@H](CCCCN)NC1=O` (Ac-EWW[R8]KLELQR[S5]RRA-NH2; staple (Z) 4-11), in the experiment on HeLa [3], the inhibition entry is listed as “Active; Compound Exerted Better Inhibitory Effect Than Tame”.

For `C[C@@H](O)[C@H](NC(=O)[C@H](CCCNC(=N)N)NC(=O)[C@@H]1CSSC[C@H](NC(=O)[C@H](CCCNC(=N)N)NC(=O)CN)C(=O)N[C@@H](Cc2cnc[nH]2)C(=O)N[C@@H](Cc2c[nH]c3ccccc23)C(=O)NCC(=O)N2CCC[C@H]2C(=O)N[C@@H](CCC(=O)O)C(=O)N[C@@H]([C@@H](C)O)C(=O)N[C@@H](Cc2ccccc2)C(=O)N[C@@H](Cc2c[nH]c3ccccc23)C(=O)N1)C(=O)O` (H-GRCHWGPETFWCRT-OH; disulfide 3-12), in experiment [1], the deltaG was -19.4 kcal/mol. The inhibition result with HeLa [2] is “Active”.

Regarding `CC(=O)N[C@H]1CSSC[C@@H](C(=O)N[C@H](C(=O)N[C@@H](Cc2c[nH]c3ccccc23)C(=O)N[C@@H](CCCNC(=N)N)C(=O)N[C@@H](Cc2ccc(O)cc2)C(N)=O)[C@@H](C)O)NC(=O)[C@H](Cc2cnc[nH]2)NC(=O)[C@H](Cc2c[nH]c3ccccc23)NC(=O)[C@H](CCC(N)=O)NC(=O)[C@H](CO)NC(=O)[C@@H]2CCCN2C(=O)CNC(=O)[C@H](C)NC(=O)[C@H](CCC(=O)O)NC1=O` (Ac-CEAGPSQWHCTWRY-NH2; disulfide 1-10), in experiment [1], the deltaG was -18.3 kcal/mol. Besides, the inhibition result in the experiment on HeLa [2] was “inactive”.
